Laboratory results as given in patent publication US20120202744A1, “DUAL ANTAGONISM OF ENDOTHELIN TYPE A AND BRADYKININ B1 RECEPTORS FOR TREATING PAIN AND PREVENTING CARTILAGE DEGRADATION” (priority 2011, published 2012).
Non-standard residues stand in square brackets, D forms with d. Residues, ends and D or L forms follow the SMILES beside them.

Legend:
bradykinin receptor B2 = bradykinin receptor B2 (Homo sapiens, UniProt P30411); settings: patients with painful knee osteoarthritis, intra-articular; cited from earlier work
bradykinin receptor B2, sequence (P30411 whole entry): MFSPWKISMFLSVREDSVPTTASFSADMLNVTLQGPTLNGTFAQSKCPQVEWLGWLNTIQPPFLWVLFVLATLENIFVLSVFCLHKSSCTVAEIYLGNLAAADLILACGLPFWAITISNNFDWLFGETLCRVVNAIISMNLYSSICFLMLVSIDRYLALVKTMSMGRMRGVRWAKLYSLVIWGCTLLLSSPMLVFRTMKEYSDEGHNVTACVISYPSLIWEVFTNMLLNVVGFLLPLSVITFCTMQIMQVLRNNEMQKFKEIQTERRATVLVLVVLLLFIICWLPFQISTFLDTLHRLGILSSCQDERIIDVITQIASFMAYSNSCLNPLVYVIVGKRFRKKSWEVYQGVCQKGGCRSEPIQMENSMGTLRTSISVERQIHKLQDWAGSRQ

[1] = tested on: rat anterior cruciate ligament transection (ACLT) model of osteoarthritis; assay: Digital micro-X-ray (DX) OA radiological scoring of knee joints; type: in vivo; settings: ACLT rats; for Mean radiological score: DX views, maximum possible score nine; for radiological indices of disease progression (DX) versus saline-treated controls: 0.0020≦P≦0.0214
Source text: (§1) At four or eight weeks post-surgery, animals were sacrificed by cardiac puncture under deep isoflurane anaesthesia. The right knee was dissected, and 40-mm-long samples were cut and stored in phosphate-buffered saline until scanned by digital micro-X-ray (DX) and/or micro-magnetic resonance (MR) imaging. Samples were dissected the same day as the radiological scans.
All knee samples were X-rayed using a Faxitron MX-20™ specimen X-ray system (Faxitron X-Ray Corporation, Lincolnshire, Ill.). Anteroposterior and lateral views were acquired at 5× magnification (10×10 μm pixel size) using a dose of 26 kV for 6 seconds. Images were analyzed using OsiriX™ software (version 3.7.1) [Rosset et al. OsiriX: an open-source software for navigating in multidimensional DICOM images. Journal of digital imaging (2004) 17(3): 205-16]. Radiological evidence of joint degradation, such as joint space narrowing and osteophyte formation, was evaluated. Radiological evidence of joint degradation was scored by two blinded examiners using an OA radiological score modified from Clark et al. [Clark R L, Cuttino JT Jr, Anderle S K, Cromartie W J, Schwab J H: Radiologic analysis of arthritis in rats after systemic injection of streptococcal cell walls. Arthritis Rheum 1979, 22:25-35.] and Esser et al. [Esser R E, Hildebrand A R, Angelo R A, Watts L M, Murphey M D, Baugh L E: Measurement of radiographic changes in adjuvant-induced arthritis in rats by quantitative image analysis. Arthritis Rheum 1995, 38:129-38.]. Bone demineralization, subchondral bone erosion, and heterotopic ossification were all scored on a scale from zero (normal) to three (marked degenerative changes). Total scores were calculated by summing the individual scores for each index, with a maximum possible score of nine.
OA radiological scores were statistically analyzed by one-way ANOVA, with total scores taken as the dependent variable and treatment group as the independent variable. Pairwise post-hoc testing with Holm correction was used to establish significance in between treatment groups. P-values less than 0.05 were considered statistically significant. Analyses were conducted using R (version 2.11.0) [R Development Core Team: R: A Language and Environment for Statistical Computing. Vienna, Austria: R Foundation for Statistical Computing 2010.].

[2] = tested on: rat anterior cruciate ligament transection (ACLT) model of osteoarthritis; assay: Cartilage and bone histomorphology (Safranin O/Fast Green) with OARSI histopathology scoring; type: in vivo; settings: ACLT rats, eight weeks post-operatively, maximum value 24
Description: After radiological examination, knee samples were fixed in 10% neutral buffered formalin for two weeks, decalcified with RDO Rapid Decalcifier™ (Apex Engineering Products, Aurora, Ill.) for three days, circulated, and embedded in paraffin. Five-micron sagittal sections were acquired from the middle of the knee joint. Histomorphological staining was performed as previously described [Rosenberg L: Chemical basis for the histological use of safranin O in the study of articular cartilage. J Bone Joint Surg Am 1971, 53:69-82]: slides were deparrafinized, rehydrated, stained with Safranin O (which colours proteoglycans red) and Fast Green FCF (which colours collagens green), counterstained with hematoxylin, dehydrated, cleared, and mounted in Permount™. […]
Four slides from each condition were scored by two blinded examiners using the Osteoarthritis Research Society International (OARSI) histopathology assessment system [Pritzker K P H, Gay S, Jimenez S A, Ostergaard K, Pelletier J P, Revell P A, Salter D, van den Berg W B: Osteoarthritis cartilage histopathology: grading and staging. […]
OARSI scores were statistically analyzed by one-way ANOVA, with total scores taken as the dependent variable and treatment group as the independent variable. […]

[3] = tested on: articular cartilage of ACLT rat knee; assay: Micro-magnetic resonance imaging of knee, cartilage mean T2; type: in vivo; settings: ACLT rats, four weeks post-operatively; statistical significance between groups not achieved
Source text: as §1
A subset of animals were sacrificed four weeks post-operatively and their right knees were imaged by micro-MR. Imaging was performed using a Bruker PharmaScan™ (Ettlingen, Germany) 7 Tesla MR scanner at the McGill University Small Animal Imaging Lab (Montreal, QC). Knee samples were placed in a custom-made support inside a 15-mL centrifuge tube, which was then filled with the MR-inert buffer FC-770™ (3M Fluorinert™ Electronic Liquid). Samples were introduced into a 1H mouse brain radio frequency (RF) coil (inner diameter 22 mm), and centred in the magnet. The RF coil was tuned and matched to the sample, and the magnet was then shimmed. The system was controlled via Bruker ParaVision™ software (version 5.0). […]
After acquisition, images were analyzed using OsiriX software (version 3.7.1). […] As well, images were analyzed for signs of cartilage decay, indicated by lower signal intensity of the articular surfaces. […]

COX-2 = COX-2 immunohistochemistry on articular cartilage of surgically induced OA; type: in vivo, rat; settings: surgery-induced OA rats
Source text: FIGS. 11A-11D are photomicrographs depicting the effect of BQ-123+R-954 dual inhibition. […] Tissues were obtained from surgery induced OA in a rat model Top panel represent COX-2 immunodetection on tissues from non-treated lesioned animals (FIG. 11A); BQ-123 treatment (FIG. 11B); R-954 treatment (FIG. 11C); BQ-123+R-954 dual treatment (FIG. 11D). Specific immune staining for COX-2 protein is observed as a darker color. Surgery, pharmacological treatment, and tissue collection and processing were performed as described in Kaufman et al., Arthritis Research and Therapy, 2011, 13:R76. FIG. 11E is a bar graph depicting the percentage of COX-2-positive chondrocytes in each of the conditions (mean of 5 slides counted per condition).
Method: 5-micron sections were processed for immunohistochemical detection of cyclooxygenase COX-2 as described above.

NC(N)=NCCC[C@@H](N)C(=O)N[C@@H](CCCN=C(N)N)C(=O)N1CCC[C@H]1C(=O)N1C[C@H](O)C[C@H]1C(=O)NCC(=O)N[C@@H](Cc1cccs1)C(=O)N[C@@H](CO)C(=O)N1Cc2ccccc2C[C@@H]1C(=O)N1[C@H](C(=O)N[C@@H](CCCN=C(N)N)C(=O)O)C[C@@H]2CCCC[C@@H]21 [Icatibant]
analgesia in knee OA (bradykinin receptor B2): provided local analgesia
anti-inflammatory effect in knee OA (bradykinin receptor B2): no anti-inflammatory effect could be detected

C=C(N)NCC[C@@H](CC(=O)[C@@H](CCCC)CC(C)=O)C(=O)N1[C@H]2CCCC[C@@]2(C)C[C@H]1C(=O)N1CCC[C@@H]1C(=O)CCC(=O)NC(C)(Cc1ccccc1)C(=O)NC(CO)C(=O)C[C@H](Cc1cccc2ccccc12)C(=C)CC(C(=O)O)[C@H](C)CC (some centres unmarked) [R-954]
Mean radiological score [1]: 2.50
radiological indices of disease progression (DX) versus saline-treated controls [1]: significantly ameliorated radiological indices of disease progression
Mean OARSI score [2]: 4.25
Mean T2 value [3]: 64.38 ms

CC(C)C[C@@H]1NC(=O)[C@@H](C(C)C)NC(=O)[C@@H]2CCCN2C(=O)[C@@H](CC(=O)O)NC(=O)[C@@H](Cc2c[nH]c3ccccc23)NC1=O [BQ-123] (cyclo(L[dW][dD]P[dV]))
COX-2 staining on articular cartilage (COX-2): diminished
Mean radiological score [1]: 2.83
radiological indices of disease progression (DX) versus saline-treated controls [1]: significantly ameliorated radiological indices of disease progression
Mean OARSI score [2]: 10.25
Mean T2 value [3]: 61.13 ms
